# Results as given in ChEMBL document CHEMBL3045835, “Comparative study of conventional and microwave-assisted synthesis of some Schiff bases and their potential as antimicrobial agents” (2012).
# Experiments:
# Assay type in all cases: functional
# Pseudomonas fluorescens [1] = test: Antibacterial activity against Pseudomonas fluorescens MTCC 2421 after 24 hr by broth dilution method; settings: MTCC 2421, 24 h
# Pseudomonas aeruginosa [2] = test: Antibacterial activity against Pseudomonas aeruginosa MTCC 424 at 500 ug/ml after 18 hr by cup-plate method; settings: MTCC 424, 18 h, read-out: DIZ
# Pseudomonas aeruginosa [3] = test: Antibacterial activity against Pseudomonas aeruginosa MTCC 424 at 100 ug/ml after 18 hr by cup-plate method; settings: MTCC 424, 18 h, read-out: DIZ
# Staphylococcus aureus [4] = test: Antibacterial activity against Staphylococcus aureus MTCC 1430 at 1000 ug/ml after 18 hr by cup-plate method; settings: MTCC 1430, 18 h, read-out: DIZ
# Escherichia coli [5] = test: Antibacterial activity against Escherichia coli MTCC 1573 at 200 ug/ml after 18 hr by cup-plate method; settings: MTCC 1573, 18 h, read-out: DIZ
# Bacillus subtilis [6] = test: Antibacterial activity against Bacillus subtilis MTCC 441 at 100 ug/ml after 18 hr by cup plate method; settings: MTCC 441, 18 h, read-out: DIZ
# Escherichia coli [7] = test: Antibacterial activity against Escherichia coli MTCC 1573 after 24 hr by broth dilution method; settings: MTCC 1573, 24 h
# Pseudomonas fluorescens [8] = test: Antibacterial activity against Pseudomonas fluorescens MTCC 2421 at 200 ug/ml after 18 hr by cup-plate method; settings: MTCC 2421, 18 h, read-out: DIZ
# Micrococcus luteus [9] = test: Antibacterial activity against Micrococcus luteus MTCC 1538 at 100 ug/ml after 18 hr by cup-plate method; settings: MTCC 1538, 18 h, read-out: DIZ
# Pseudomonas fluorescens [10] = test: Antibacterial activity against Pseudomonas fluorescens MTCC 2421 at 100 ug/ml after 18 hr by cup-plate method; settings: MTCC 2421, 18 h, read-out: DIZ
# Micrococcus luteus [11] = test: Antibacterial activity against Micrococcus luteus MTCC 1538 at 500 ug/ml after 18 hr by cup-plate method; settings: MTCC 1538, 18 h, read-out: DIZ
# Penicillium chrysogenum [12] = test: Antifungal activity against Penicillium chrysogenum MTCC 161 after 24 hr by broth dilution method; settings: MTCC 161, 24 h
# Bacillus subtilis [13] = test: Antibacterial activity against Bacillus subtilis MTCC 441 at 1000 ug/ml after 18 hr by cup plate method; settings: MTCC 441, 18 h, read-out: DIZ
# Pseudomonas aeruginosa [14] = test: Antibacterial activity against Pseudomonas aeruginosa MTCC 424 at 1500 ug/ml after 18 hr by cup-plate method; settings: MTCC 424, 18 h, read-out: DIZ
# Staphylococcus aureus [15] = test: Antibacterial activity against Staphylococcus aureus MTCC 1430 at 1500 ug/ml after 18 hr by cup-plate method; settings: MTCC 1430, 18 h, read-out: DIZ
# Micrococcus luteus [16] = test: Antibacterial activity against Micrococcus luteus MTCC 1538 after 24 hr by broth dilution method; settings: MTCC 1538, 24 h
# Penicillium chrysogenum [17] = test: Antifungal activity against Penicillium chrysogenum MTCC 161 at 1000 ug/ml after 18 hr by cup-plate method; settings: MTCC 161, 18 h, read-out: DIZ
# Pseudomonas fluorescens [18] = test: Antibacterial activity against Pseudomonas fluorescens MTCC 2421 at 1500 ug/ml after 18 hr by cup-plate method; settings: MTCC 2421, 18 h, read-out: DIZ
# Bacillus subtilis [19] = test: Antibacterial activity against Bacillus subtilis MTCC 441 at 200 ug/ml after 18 hr by cup plate method; settings: MTCC 441, 18 h, read-out: DIZ
# Penicillium chrysogenum [20] = test: Antifungal activity against Penicillium chrysogenum MTCC 161 at 100 ug/ml after 18 hr by cup-plate method; settings: MTCC 161, 18 h, read-out: DIZ
# Pseudomonas aeruginosa [21] = test: Antibacterial activity against Pseudomonas aeruginosa MTCC 424 at 200 ug/ml after 18 hr by cup-plate method; settings: MTCC 424, 18 h, read-out: DIZ
# Bacillus pumilus [22] = test: Antibacterial activity against Bacillus pumilus MTCC 1456 at 200 ug/ml after 18 hr by cup-plate method; settings: MTCC 1456, 18 h, read-out: DIZ
# Bacillus pumilus [23] = test: Antibacterial activity against Bacillus pumilus MTCC 1456 at 1000 ug/ml after 18 hr by cup-plate method; settings: MTCC 1456, 18 h, read-out: DIZ
# Staphylococcus aureus [24] = test: Antibacterial activity against Staphylococcus aureus MTCC 1430 at 200 ug/ml after 18 hr by cup-plate method; settings: MTCC 1430, 18 h, read-out: DIZ
# Escherichia coli [25] = test: Antibacterial activity against Escherichia coli MTCC 1573 at 500 ug/ml after 18 hr by cup-plate method; settings: MTCC 1573, 18 h, read-out: DIZ
# Penicillium chrysogenum [26] = test: Antifungal activity against Penicillium chrysogenum MTCC 161 at 1500 ug/ml after 18 hr by cup-plate method; settings: MTCC 161, 18 h, read-out: DIZ
# Escherichia coli [27] = test: Antibacterial activity against Escherichia coli MTCC 1573 at 1000 ug/ml after 18 hr by cup-plate method; settings: MTCC 1573, 18 h, read-out: DIZ
smiles,measurement,setting,value
Clc1ccc(/N=C/c2cccs2)cc1,MIC,Pseudomonas fluorescens [1],300 µg/mL
same,zone of inhibition at 500 µg/mL,Pseudomonas aeruginosa [2],16 mm
same,zone of inhibition at 100 µg/mL,Pseudomonas aeruginosa [3],10 mm
same,zone of inhibition at 1000 µg/mL,Staphylococcus aureus [4],16 mm
same,zone of inhibition at 200 µg/mL,Escherichia coli [5],15 mm
same,zone of inhibition at 100 µg/mL,Bacillus subtilis [6],11 mm
same,MIC,Escherichia coli [7],200 µg/mL
same,zone of inhibition at 200 µg/mL,Pseudomonas fluorescens [8],13 mm
same,zone of inhibition at 100 µg/mL,Micrococcus luteus [9],11 mm
same,zone of inhibition at 100 µg/mL,Pseudomonas fluorescens [10],11 mm
same,zone of inhibition at 500 µg/mL,Micrococcus luteus [11],18 mm
same,MIC,Penicillium chrysogenum [12],300 µg/mL
same,zone of inhibition at 1000 µg/mL,Bacillus subtilis [13],18 mm
same,zone of inhibition at 1500 µg/mL,Pseudomonas aeruginosa [14],19 mm
same,zone of inhibition at 1500 µg/mL,Staphylococcus aureus [15],18 mm
same,MIC,Micrococcus luteus [16],400 µg/mL
same,zone of inhibition at 1000 µg/mL,Penicillium chrysogenum [17],17 mm
same,zone of inhibition at 1500 µg/mL,Pseudomonas fluorescens [18],20 mm
same,zone of inhibition at 200 µg/mL,Bacillus subtilis [19],12 mm
same,zone of inhibition at 100 µg/mL,Penicillium chrysogenum [20],13 mm
same,zone of inhibition at 200 µg/mL,Pseudomonas aeruginosa [21],13 mm
same,zone of inhibition at 200 µg/mL,Bacillus pumilus [22],15 mm
same,zone of inhibition at 1000 µg/mL,Bacillus pumilus [23],18 mm
same,zone of inhibition at 200 µg/mL,Staphylococcus aureus [24],13 mm
same,zone of inhibition at 500 µg/mL,Escherichia coli [25],16 mm
same,zone of inhibition at 1500 µg/mL,Penicillium chrysogenum [26],19 mm
same,zone of inhibition at 1000 µg/mL,Escherichia coli [27],19 mm
